Source: article PMC12203311, “Design, synthesis, in silico and in vitro evaluation of pyrrole–indole hybrids as dual tubulin and aromatase inhibitors with potent anticancer activities” (RSC Advances, 2025)

How the values were obtained:
Assay in all cases: NCI60 five-dose screen
[1] = tested on: EKVX; assay type: cell-based; details: Homo sapiens, NSC lung cancer
[2] = tested on: SNB-75; assay type: cell-based; details: Homo sapiens, SNB-75, CNS cancer
[3] = tested on: U251; assay type: cell-based; details: Homo sapiens, U-251, U251, CNS cancer
[4] = tested on: SN12C; assay type: cell-based; details: Homo sapiens, renal cancer
[5] = tested on: NCI-H460; assay type: cell-based; details: Homo sapiens, NCI-H460, NSC lung cancer
[6] = tested on: SF-295; assay type: cell-based; details: Homo sapiens, SF-295, CNS cancer
[7] = tested on: HOP-62; assay type: cell-based; details: Homo sapiens, HOP-62, NSC lung cancer
[8] = tested on: NCI-H522; assay type: cell-based; details: Homo sapiens, NCI-H522, NSC lung cancer
[9] = tested on: RPMI-8226; assay type: cell-based; details: Homo sapiens, RPMI-8226, leukemia
[10] = tested on: HL-60 (TB); assay type: cell-based; details: Homo sapiens, leukemia
[11] = tested on: SNB-19; assay type: cell-based; details: Homo sapiens, SNB-19, CNS cancer
[12] = tested on: NCI/ADR-RES; assay type: cell-based, human; details: Homo sapiens, ovarian cancer
[13] = tested on: OVCAR-3; assay type: cell-based; details: Homo sapiens, OVCAR-3, ovarian cancer
[14] = tested on: COLO 205; assay type: cell-based, human; details: Homo sapiens
[15] = tested on: K-562; assay type: cell-based; details: Homo sapiens, K562, K-562, leukemia
[16] = tested on: OVCAR-4; assay type: cell-based; details: Homo sapiens, OVCAR-4, ovarian cancer
[17] = tested on: MDA-MB-231/ATCC; assay type: cell-based; details: Homo sapiens, breast cancer
[18] = tested on: OVCAR-8; assay type: cell-based; details: Homo sapiens, OVCAR-8, ovarian cancer
[19] = tested on: DU-145; assay type: cell-based; details: Homo sapiens, DU-145, prostate cancer
[20] = tested on: PC-3; assay type: cell-based; details: Homo sapiens, PC-3, prostate cancer
[21] = tested on: HCT-15; assay type: cell-based; details: Homo sapiens, HCT-15, colon cancer
[22] = tested on: SK-MEL-28; assay type: cell-based; details: Homo sapiens, SK-MEL-28, melanoma
[23] = tested on: SK-OV-3; assay type: cell-based; details: Homo sapiens, SK-OV-3, ovarian cancer
[24] = tested on: MCF7; assay type: cell-based; details: Homo sapiens, MCF7, breast cancer
[25] = tested on: ACHN; assay type: cell-based; details: Homo sapiens, renal cancer
[26] = tested on: A549/ATCC; assay type: cell-based; details: Homo sapiens, NSC lung cancer
[27] = tested on: SK-MEL-5; assay type: cell-based, human; details: Homo sapiens
[28] = tested on: TK-10; assay type: cell-based; details: Homo sapiens, TK-10, renal cancer
[29] = tested on: LOX IMVI; assay type: cell-based; details: Homo sapiens, melanoma
[30] = tested on: SK-MEL-2; assay type: cell-based; details: Homo sapiens, SK-MEL-2, melanoma
[31] = tested on: NCI-H23; assay type: cell-based; details: Homo sapiens, NCI-H23, NSC lung cancer
[32] = tested on: BT-549; assay type: cell-based; details: Homo sapiens, BT-549, breast cancer
[33] = tested on: CAKI-1; assay type: cell-based; details: Homo sapiens, CAKI-1, renal cancer
[34] = tested on: UACC-257; assay type: cell-based; details: Homo sapiens, UACC-257, melanoma
[35] = tested on: IGROV1; assay type: cell-based; details: Homo sapiens, IGROV-1; IGROV1, ovarian cancer
[36] = tested on: UACC-62; assay type: cell-based; details: Homo sapiens, UACC-62, melanoma
[37] = read-out: LC50 (the source's name)

## O=C(N/N=C/c1cc([N+](=O)[O-])c[nH]1)c1[nH]c2ccc(Br)cc2c1-c1ccccc1 [Derivative 3q, (E)-5-Bromo-N′-((4-nitro-1H-pyrrol-2-yl)methylene)-3-phenyl-1H-indole-2-carbohydrazide]
[1]
  GI50: > 100000 nM
[1]; [37]
  CC50: > 100000 nM
[2]
  GI50: 242 nM
[2]; [37]
  CC50: > 100000 nM
[3]
  GI50: 574 nM
[3]; [37]
  CC50: 66800 nM
[4]
  GI50: 2580 nM
[4]; [37]
  CC50: > 100000 nM
[5]
  GI50: 328 nM
[5]; [37]
  CC50: > 100000 nM
[6]
  GI50: 623 nM
[6]; [37]
  CC50: > 100000 nM
[7]
  GI50: 1260 nM
[7]; [37]
  CC50: > 100000 nM
[8]
  GI50: 722 nM
[8]; [37]
  CC50: > 100000 nM
[9]
  GI50: 3710 nM
[9]; [37]
  CC50: > 100000 nM
[10]
  GI50: 633 nM
[10]; [37]
  CC50: > 100000 nM
[11]
  GI50: 6250 nM
[11]; [37]
  CC50: > 100000 nM
[12]
  GI50: 434 nM
[12]; [37]
  CC50: > 100000 nM
[13]
  GI50: 397 nM
[13]; [37]
  CC50: > 100000 nM
[14]; COLO 205, COLO 205, colon cancer, read-out: LC50 (the source's name)
  CC50: > 100000 nM
[14]; COLO 205, colon cancer
  GI50: 1280 nM
[15]
  GI50: 387 nM
[15]; [37]
  CC50: > 100000 nM
[16]
  GI50: 1060 nM
[16]; [37]
  CC50: > 100000 nM
[17]
  GI50: 17400 nM
[17]; [37]
  CC50: > 100000 nM
[18]
  GI50: 10200 nM
[18]; [37]
  CC50: > 100000 nM
[19]
  GI50: 3870 nM
[19]; [37]
  CC50: > 100000 nM
[20]
  GI50: 724 nM
[20]; [37]
  CC50: > 100000 nM
[21]
  GI50: 504 nM
[21]; [37]
  CC50: > 100000 nM
[22]
  GI50: 890 nM
[22]; [37]
  CC50: > 100000 nM
[23]
  GI50: 3140 nM
[23]; [37]
  CC50: > 100000 nM
[24]
  GI50: 354 nM
[24]; [37]
  CC50: > 100000 nM
[25]
  GI50: 791 nM
[25]; [37]
  CC50: > 100000 nM
[26]
  GI50: 1790 nM
[26]; [37]
  CC50: > 100000 nM
[27]; SK-MEL-5, SK-MEL-5, melanoma, read-out: LC50 (the source's name)
  CC50: 69900 nM
[27]; SK-MEL-5, melanoma
  GI50: 671 nM
[28]
  GI50: 76000 nM
[28]; [37]
  CC50: > 100000 nM
[29]
  GI50: 647 nM
[29]; [37]
  CC50: > 100000 nM
[30]
  GI50: 1300 nM
[30]; [37]
  CC50: > 100000 nM
[31]
  GI50: 2570 nM
[31]; [37]
  CC50: > 100000 nM
[32]
  GI50: 2470 nM
[32]; [37]
  CC50: > 100000 nM
[33]
  GI50: 530 nM
[33]; [37]
  CC50: > 100000 nM
[34]
  GI50: 2580 nM
[34]; [37]
  CC50: > 100000 nM
[35]
  GI50: 2060 nM
[36]
  GI50: 538 nM
[36]; [37]
  CC50: > 100000 nM
